Experimental data taken from ChEMBL document CHEMBL1156829 (Proc Natl Acad Sci U S A, 2008).

Tests used:
[1] = test system: Plasmodium falciparum; assay: NOVARTIS: Inhibition of Plasmodium falciparum 3D7 (drug-susceptible) proliferation in erythrocyte-based infection assay; assay type: functional, organism-based; conditions: Plasmodium falciparum, 3D7
[2] = test system: Plasmodium falciparum; assay: NOVARTIS: Inhibition of Plasmodium falciparum W2 (drug-resistant) proliferation in erythrocyte-based infection assay; assay type: functional, organism-based; conditions: Plasmodium falciparum, W2; read-out: EC50
[3] = NOVARTIS: Cytotoxicity against human hepatocellular carcinoma cell line (Huh7); assay type: toxicity, cell-based, Huh-7; conditions: Huh7 cells (hepatocellular carcinoma cell line)

## O=C(Nc1ccc2nc3n(c(=O)c2c1)CCCCC3)C(=O)N1CCN(c2ccccc2)CC1
[1]
  EC50: 133 nM
[2]
  EC50: 30.8 nM
[3]
  CC50: > 100000 nM

## CC(C)CN(CC(=O)Nc1cc(C(C)(C)C)nn1-c1ccccc1)C(=O)c1cc(Cl)cc(Cl)c1
[1]
  EC50: 1230 nM
[2]
  EC50: < 16.7 nM
[3]
  CC50: > 10000 nM

## COc1cccc(-c2ccc(O)c(CN3CCC(Cc4ccccc4)CC3)c2)n1
[1]
  EC50: 306 nM
[2]
  EC50: 86.1 nM
[3]
  CC50: 38400 nM

## CCCCCN(C(=O)COc1ccc(Cl)cc1)C(CC)c1nc2ccccc2c(=O)n1-c1cccc(Cl)c1 (centres undefined)
[1]
  EC50: 1420 nM
[2]
  EC50: > 1380 nM
[3]
  CC50: > 10000 nM

## CCc1n(CC(=O)OC2CC(C)CCC2C(C)C)c2ccccc2[n+]1C (centres undefined)
[1]
  EC50: 267 nM
[2]
  EC50: 203 nM
[3]
  CC50: 29900 nM

## COC(=O)[C@@H]1C[C@@H](NC(=O)c2ccc(OC)cc2)CN1CC(c1ccccc1)c1ccccc1
[1]
  EC50: 1150 nM
[2]
  EC50: < 25.7 nM
[3]
  CC50: > 4170 nM

## CCOC(=O)C1=C(c2ccccc2)N=c2sc(=Cc3c(C)n(Cc4ccc(F)cc4)c4ccccc34)c(=O)n2C1c1cccc(OC)c1OC (centres undefined)
[1]
  EC50: 1130 nM
[2]
  EC50: 4620 nM
[3]
  CC50: > 100000 nM

## Cc1ccc(C(=O)Nc2ccc(-c3nc4ccc(NC(=O)c5ccc(C)cc5)cc4[nH]3)cc2)cc1
[1]
  EC50: 1570 nM
[2]
  EC50: > 5780 nM
[3]
  CC50: 1890 nM

## COc1ccc(C2CC(=O)C3=C(C2)NC(C)=C(C(=O)OC(C)C)C3c2ccccc2Br)cc1OC (centres undefined)
[1]
  EC50: 13.7 nM
[2]
  EC50: 7.84 nM
[3]
  CC50: 23300 nM

## O=C(NCc1ccccc1)c1cnc(NCCCn2ccnc2)nc1NCC1CCCCC1
[1]
  EC50: 311 nM
[2]
  EC50: 1040 nM
[3]
  CC50: > 10000 nM

## CCC(C)NC(=O)c1cc(NC(=O)/C=C/c2ccc([N+](=O)[O-])cc2)ccc1N1CCN(c2ccccc2OC)CC1 (centres undefined)
[1]
  EC50: > 1250 nM
[2]
  EC50: 54.3 nM
[3]
  CC50: 5550 nM

## CCN(CC(=O)N1CCc2cc(OC)c(OC)cc2C1C)C(=O)Nc1ccc(Br)cc1 (centres undefined)
[1]
  EC50: > 1250 nM
[2]
  EC50: > 692 nM
[3]
  CC50: > 10000 nM

## O=C(Nc1c(C(=O)Nc2cccc(Cl)c2)oc2ccccc12)c1cc(-c2ccccc2O)n[nH]1
[1]
  EC50: 272 nM
[2]
  EC50: 74.2 nM
[3]
  CC50: 35100 nM

## Cc1cc(C)cc(NC(=S)NNc2ccnc3cc(Cl)ccc23)c1
[1]
  EC50: 1240 nM
[2]
  EC50: 2170 nM
[3]
  CC50: 67700 nM

## COc1ccc([C@@H]2C[C@H](OC(=O)c3ccc4c(c3)OCO4)C(=O)N2C)cc1
[1]
  EC50: 1180 nM
[2]
  EC50: > 1250 nM
[3]
  CC50: > 10000 nM

## CCCn1c(SCCNC(=O)/C=C/c2ccccc2)nc(-c2ccccc2)c1-c1ccccc1
[1]
  EC50: 557 nM
[2]
  EC50: 29.7 nM
[3]
  CC50: 9380 nM

## Cc1nc(-c2ccc[n+](C)c2)sc1C(=O)C=Cc1ccc(Cl)cc1
[1]
  EC50: 341 nM
[2]
  EC50: 797 nM
[3]
  CC50: 65200 nM

## COc1cc(NC(C)CCCN(Cc2ccc(N(C)C)cc2)S(=O)(=O)c2c(C)cc(C)cc2C)c2ncccc2c1 (centres undefined)
[1]
  EC50: 533 nM
[2]
  EC50: < 13.4 nM
[3]
  CC50: > 10600 nM

## CCCCNC(=O)N(CCCC(C)Nc1cc(OC)cc2cccnc12)Cc1ccc(OC)c(OC)c1 (centres undefined)
[1]
  EC50: 1260 nM
[2]
  EC50: 422 nM
[3]
  CC50: > 4470 nM

## O=c1c(NCc2ccco2)nc2cc(Cl)ccc2n1CCNc1ncc(C(F)(F)F)cc1Cl
[1]
  EC50: 810 nM
[2]
  EC50: 2330 nM
[3]
  CC50: 63800 nM

## CCOC(=O)C1=C(C)N=c2sc(=Cc3ccccc3OC(C)=O)c(=O)n2C1c1ccc(OC)cc1 (centres undefined)
[1]
  EC50: 515 nM
[2]
  EC50: 339 nM
[3]
  CC50: > 100000 nM

## COc1ccc(Cn2c(SCC(=O)Nc3ccccc3OC)nc3ccsc3c2=O)cc1
[1]
  EC50: > 778 nM
[2]
  EC50: > 1250 nM
[3]
  CC50: > 10000 nM

## CCOC(=O)c1c(C)[n+](-c2ccc(C)cc2)c(CC)c2cc(OC)c(OC)cc12
[1]
  EC50: 702 nM
[2]
  EC50: 683 nM
[3]
  CC50: > 94000 nM

## CCCCCOC(=O)C1=C(C)Nc2ncnn2C1c1cccc([N+](=O)[O-])c1 (centres undefined)
[1]
  EC50: > 988 nM
[2]
  EC50: > 1250 nM
[3]
  CC50: > 10000 nM

## CC(C)c1ccc(C=CC(=O)NCc2ccco2)cc1
[1]
  EC50: 1480 nM
[2]
  EC50: 2000 nM
[3]
  CC50: > 100000 nM

## Fc1ccc(Nc2nc(NCc3ccccc3)c3ccccc3n2)cc1
[1]
  EC50: 75.5 nM
[2]
  EC50: 58.6 nM
[3]
  CC50: 8870 nM

## CC(C)CNC(=O)c1cnc(NCCCN)nc1NC1CCCC1
[1]
  EC50: 635 nM
[2]
  EC50: 26.7 nM
[3]
  CC50: > 10000 nM

## O=C(C1CC1)N1CCc2cc(Br)cc(S(=O)(=O)N3CCCC3)c21
[1]
  EC50: 929 nM
[2]
  EC50: 1120 nM
[3]
  CC50: > 100000 nM

## O=C(Nc1ccccc1)Nc1ccc(S(=O)(=O)Nc2ccc(Br)cc2)cc1
[1]
  EC50: 662 nM
[2]
  EC50: 1160 nM
[3]
  CC50: > 10000 nM

## CCCSCCCNC(=O)c1oc2c(c1C)-c1[nH]ncc1CC2
[1]
  EC50: > 1150 nM
[2]
  EC50: > 725 nM
[3]
  CC50: > 10000 nM

## CCOC(=O)N1CCN(C(=O)c2cnc3ccc(C)cn3c2=O)CC1
[1]
  EC50: > 355 nM
[2]
  EC50: > 1660 nM
[3]
  CC50: > 10000 nM

## COc1nccnc1NS(=O)(=O)c1ccc(NC(=O)c2cc3ccccc3oc2=O)cc1
[1]
  EC50: > 1250 nM
[2]
  EC50: > 428 nM
[3]
  CC50: > 10000 nM

## N#Cc1ccccc1N1CCCCC1
[1]
  EC50: > 10800 nM
[2]
  EC50: 1790 nM
[3]
  CC50: > 100000 nM
